Patent publication US20120178765A1, “NOVEL GLUCOKINASE ACTIVATORS AND PROCESSES FOR THE PREPARATION THEREOF” (YUHAN CORPORATION, priority 2009, published 2012)
Structures can show the parent of a compound that is named as a salt.

Each compound was assayed against T1, Glucokinase (Homo sapiens, UniProt P35557) (assay: Glucokinase activation assay (NADPH absorbance at 340 nm)). Conditions: glucokinase (ProteinOne Inc.), 5 mM D(+)-glucose, 24° C., 90 minutes.
T1 construct: purchased ProteinOne Inc
T1 sequence (P35557 1-465): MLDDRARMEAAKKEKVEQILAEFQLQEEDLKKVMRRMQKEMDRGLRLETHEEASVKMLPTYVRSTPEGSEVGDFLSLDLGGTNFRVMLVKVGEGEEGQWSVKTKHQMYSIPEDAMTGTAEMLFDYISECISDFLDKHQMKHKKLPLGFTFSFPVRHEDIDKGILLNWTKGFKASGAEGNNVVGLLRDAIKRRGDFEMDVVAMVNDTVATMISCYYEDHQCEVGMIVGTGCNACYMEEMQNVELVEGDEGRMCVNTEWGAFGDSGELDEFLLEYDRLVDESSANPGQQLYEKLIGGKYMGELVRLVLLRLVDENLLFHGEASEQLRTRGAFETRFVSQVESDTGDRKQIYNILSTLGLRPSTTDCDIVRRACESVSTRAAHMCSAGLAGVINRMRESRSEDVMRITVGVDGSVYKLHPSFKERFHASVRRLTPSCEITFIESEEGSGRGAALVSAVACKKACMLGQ
Format: biochemical
Procedure, shortened: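 Glucokinase (100 ng/uL) coupled to G6PDH in 25 mM HEPES pH 7 with 5 mM D(+)-glucose, 1 mM ATP, 1 mM NADP; compounds added.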
COC[C@H](C)Oc1cc(/C=C/c2c(F)cccc2F)cc(C(=O)Nc2nccs2)c1 [Example 12, 3-[trans-2-(2,6-difluorophenyl)vinyl]-5-(2-methoxy-(1S)-methyl-ethoxy)-N-(thiazol-2-yl)-benzamide] gave an EC50 of 14.7 nM. “3-[2-(2-fluorophenyl)ethyl]-5-(2-methoxy-(1S)-methyl-ethoxy)-N-(pyrazin-2-yl)-benz amide [Example 107]” was tested, and the EC50 was 333 nM. With “3-[2-(2,3-difluorophenyl)ethyl]-5-(2-methoxy-(1S)-methyl-ethoxy)-N-(1-methyl-1H-pyrazol-3-yl)-benzamide [Example 95]” the EC50 was 418 nM. In the case of COC[C@H](C)Oc1cc(CCc2cccc(NC(=O)CC(=O)O)c2)cc(C(=O)Nc2nccs2)c1 [Example 147, 3-[2-(3-malonamic acid phenyl)ethyl]-5-(2-methoxy-(1S)-methyl-ethoxy)-N-(thiazol-2-yl)-benzamide], the EC50 is reported as 222 nM. “3-[2-(2-acetylaminophenyl)ethyl]-5-(2-methoxy-(1S)-methyl-ethoxy)-N-(thiazol-2-yl)benzamide [Example 116]” gave an EC50 of 318 nM. COC[C@H](C)Oc1cc(/C=C/c2cccc([N+](=O)[O-])c2)cc(C(=O)Nc2ccc(C(=O)O)cn2)c1 [Example 75, 3-[trans-2-(3-nitrophenyl)vinyl]-5-(2-methoxy-(1S)-methyl-ethoxy)-N-(nicotinic acid-6-yl)-benzamide] showed an EC50 of 165 nM. “3-[trans-2-(3,4-dimethoxyphenyl)vinyl]-5-(2-methoxy-(1S)-methyl-ethoxy)-N-(5-fluorothiazol-2-yl)-benzamide [Example 30]” gave an EC50 of 132 nM. For “3-[trans-2-(4-nitrophenyl)vinyl]-5-(2-methoxy-(1S)-methyl-ethoxy)-N-(thiazol-2-yl)-benzamide [Example 15]”, the EC50 was 127 nM. “3-[trans-2-(4-bromophenyl)vinyl]-5-(2-methoxy-(1S)-methyl-ethoxy)-N-(1-methyl-1H-pyrazol-3-yl)-benzamide [Example 45]” was tested, and the EC50 was 181 nM. In the case of “3-[2-(3-benzoylaminophenyl)ethyl]-5-(2-methoxy-(1S)-methyl-ethoxy)-N-(thiazol-2-yl)-benzamide [Example 124]”, the EC50 is reported as 281 nM. In the case of COC[C@H](C)Oc1cc(/C=C/c2ccccc2F)cc(C(=O)Nc2ccc(C(=O)O)cn2)c1 [Example 76, 3-[trans-2-(2-fluorophenyl)vinyl]-5-(2-methoxy-(1S)-methyl-ethoxy)-N-(nicotinic acid-6-yl)-benzamide], the EC50 is reported as 55.8 nM. “3-[trans-2-(2-methoxyphenyl)vinyl]-5-(2-methoxy-(1S)-methyl-ethoxy)-N-(5-fluorothiazol-2-yl)-benzamide [Example 82]” was tested, and the EC50 was 91.8 nM. “3-[2-(2-methanesulfonylaminophenyl)ethyl]-5-(2-methoxy-(1S)-methyl-ethoxy)-N-(thiazol-2-yl)-benzamide [Example 113]” was tested, and the EC50 was 72.1 nM. For “3-[2-(2,4-difluorophenyl)ethyl]-5-(2-methoxy-(1S)-methyl-ethoxy)-N-(thiazol-2-yl)-benzamide [Example 85]”, the EC50 was 9.5 nM. For CC(C)COc1cc(/C=C/c2c(F)cccc2F)cc(C(=O)Nc2nccs2)c1 [Example 72, 3-[trans-2-(2,6-difluorophenyl)vinyl]-5-isobutoxy-N-(thiazol-2-yl)-benzamide], the EC50 was 121 nM. In the case of “3-[trans-2-(2,3,5-trifluorophenyl)vinyl]-5-(2-methoxy-(1S)-methyl-ethoxy)-N-(5-fluorothiazol-2-yl)-benzamide [Example 27]”, the EC50 is reported as 86.6 nM. CC(C)COc1cc(/C=C/c2ccc(F)cc2)cc(C(=O)Nc2nccs2)c1 [Example 2, 3-[trans-2-(4-fluorophenyl)vinyl]-5-isobutoxy-N-(thiazol-2-yl)-benzamide] gave an EC50 of 172 nM. COC[C@H](C)Oc1cc(/C=C/c2cc(F)ccc2F)cc(C(=O)Nc2ccc(C(=O)O)cn2)c1 [Example 80, 3-[trans-2-(2,5-difluorophenyl)vinyl]-5-(2-methoxy-(1S)-methyl-ethoxy)-N-(nicotinic acid-6-yl)-benzamide] showed an EC50 of 134 nM. Compound COC[C@H](C)Oc1cc(CCc2ccc(N)cc2)cc(C(=O)Nc2nccs2)c1 [Example 112, 3-[2-(4-aminophenyl)ethyl]-5-(2-methoxy-(1S)-methyl-ethoxy)-N-(thiazol-2-yl)-benzamide hydrochloride] has an EC50 of 126 nM. Work on COC[C@H](C)Oc1cc(/C=C/c2c(F)cccc2F)cc(C(=O)Nc2ccc(C(=O)O)cn2)c1 [Example 81, 3-[trans-2-(2,6-difluorophenyl)vinyl]-5-(2-methoxy-(1S)-methyl-ethoxy)-N-(nicotinic acid-6-yl)-benzamide] yielded an EC50 of 89.8 nM. For COC[C@H](C)Oc1cc(CCc2ccccc2NC(=O)Cc2cccs2)cc(C(=O)Nc2nccs2)c1 [Example 114], the EC50 was 275 nM. Work on CC(C)COc1cc(/C=C/c2cc(F)ccc2F)cc(C(=O)Nc2nccs2)c1 [Example 71, 3-[trans-2-(2,5-difluorophenyl)vinyl]-5-isobutoxy-N-(thiazol-2-yl)-benzamide] yielded an EC50 of 84.8 nM. For “3-[2-(2-methoxyphenyl)ethyl]-5-(2-methoxy-(1S)-methyl-ethoxy)-N-(pyrazin-2-yl)-benzamide [Example 106]”, the EC50 was 304 nM.
